Where “and” joins values, the source holds several entries; their conditions need not be identical. Identical values can stand only once. Entries after “also recorded” stand apart in the source; their conditions may differ. Like-named read-outs stand apart in the source and are kept apart here.
Experiments:
[1] = as disclosed in U.S. Pat. No. 5,993,859; cited from earlier work
[2] = cited from earlier work; for physical stability of the solid form: as disclosed in U.S. Pat. No. 5,993,859
[3] = Physical stability of zafirlukast ethanolate and its compositions; format: physicochemical
[4] = Hygroscopicity comparison in controlled humidity chambers, Karl Fisher water content; format: physicochemical; settings: compared with zafirlukast Form A; 25° C./60% relative humidity and 40° C./75% relative humidity, two weeks
Protocol: Hygroscopicities of zafirlukast ethanolate and zafirlukast Form A were compared by maintaining samples in controlled humidity chambers at 25° C. under 60% relative humidity and at 40° C. under 75% relative humidity for a period of two weeks, followed by Karl Fisher analysis of water content.

[5] = Drying of zafirlukast ethanolate in an air oven (weight loss, physical properties); format: physicochemical; settings: 105±1° C., 4 hours
Protocol: Preferably, the methods further comprise the step of drying the crystals of zafirlukast ethanolate. Effective drying methods include vacuum oven drying, air oven or simple vacuum desiccator drying. The ethanolate is stable at ambient temperature and will tolerate vacuum drying. When vacuum oven drying is used, one must exercise caution to avoid breaking the ethanolate. Preferred drying conditions for the ethanol solvate are about 30 to about 70° C. vacuum oven drying and are about 30 to about 105° C. at air oven drying.
5.0 g of zafirlukast Forms A, B or X, prepared according to U.S. Pat. No. 5,993,859 or zafirlukast, prepared according to J. Med. Chem., v. 33, 1781 (1990) were dissolved in hot acetone (50 mL). The solution was concentrated under reduced pressure to the volume of about 20 mL, heated to reflux and absolute ethanol (100 mL) was added to the solution. Acetone was distilled off from the stirred mixture through a 10 cm Vigreux column equipped with a distillation head until the temperature of vapor in the head of the column reached 78° C. The resulting mixture was kept overnight at the room temperature. The precipitated crystals were filtered off, washed on filter with ice cold absolute ethanol (2×5 mL) and dried under reduced pressure at 60° C. (water bath) to give crystalline zafirlukast ethanolate with mp 130-132° C.

[6] = high relative humidity and elevated temperatures

COc1cc(C(=O)NS(=O)(=O)c2ccccc2C)ccc1Cc1cn(C)c2ccc(NC(=O)OC3CCCC3)cc12 [Form A, cyclopentyl 3-[2-methoxy-4-[(o-tolylsulfonyl)carbamoyl]benzyl]-1-methylindole-5-carbamate]
bioavailability [1]: relatively good bioavailability
form conversion under high relative humidity and elevated temperatures [2, 6]: conversion of form A into form B occurs

COc1cc(C(=O)NS(=O)(=O)c2ccccc2C)ccc1Cc1cn(C)c2ccc(NC(=O)OC3CCCC3)cc12 [Form B, cyclopentyl 3-[2-methoxy-4-[(o-tolylsulfonyl)carbamoyl]benzyl]-1-methylindole-5-carbamate]
physical stability of the solid form [2]: physically unstable

COc1cc(C(=O)NS(=O)(=O)c2ccccc2C)ccc1Cc1cn(C)c2ccc(NC(=O)OC3CCCC3)cc12 [Form X, cyclopentyl 3-[2-methoxy-4-[(o-tolylsulfonyl)carbamoyl]benzyl]-1-methylindole-5-carbamate]
bioavailability [1]: relatively poor bioavailability
physical stability of the solid form [2]: physically stable

CCO.COc1cc(C(=O)NS(=O)(=O)c2ccccc2C)ccc1Cc1cn(C)c2ccc(NC(=O)OC3CCCC3)cc12 [zafirlukast ethanolate]
physical stability of the solid form [3]: relatively stable
stability at ambient temperature ([3]; ambient temperature): stable
stability under high relative humidity and elevated temperatures [3, 6]: stable
hygroscopicity [4]: less hygroscopic than other known forms of zafirlukast; also recorded: less hygroscopic than Form A of zafirlukast
change of physical properties on drying (mp, 1H NMR, infra-red spectra) [5]: without substantial change of physical properties
weight loss on drying [5]: < 1% and 0.86%
